Test results published in publication PMC8426237, “A first-in-human phase I study of TAS0728, an oral covalent binding inhibitor of HER2, in patients with advanced solid tumors with HER2 or HER3 aberrations” (Investigational New Drugs, 2021).

What was measured:
[1] = tested on: HER2; set-up: method as in PMID 30787176; conditions: cited from earlier work
[2] = set-up: method as in PMID 30787176; conditions: efficacious doses in mouse models; cited from earlier work
[3] = Plasma pharmacokinetics after single and multiple oral doses; type: in vivo, human
Experimental: Multiple blood samples were collected on day 1 of cycles 1 and 2 (i.e., pre-dose, post-dose at +0.5 h, +1 h, +1.5 h, +2 h, +3 h, +4 h, +6 h, +8 h, +12 h) for analysis of plasma PK after administration of single and multiple doses respectively; urine samples were collected 0–3 h prior to morning dose and 0–12 h post-morning dose on day 1 of cycle 1.
Continuous data were summarized with frequency, median, range, mean, standard deviation and standard error if relevant. Categorical data were presented as frequencies and percentages. 95% confidence intervals (CI) were calculated following the exact method. A p value <0.05 was considered statistically significant. Data were analyzed using the SAS® system software version 9.3 for Windows® (Statistical Analysis System, Cary, NC, USA). The PK data were analyzed using Phoenix WinNonlin (Version 6.4 or later, Certara L.P; Princeton New Jersey, United States). All analyses were descriptive and exploratory; no formal statistical testing was conducted.

[4] = tested on: xenograft models of tumors with acquired resistance to trastuzumab/pertuzumab or to T-DM1; set-up: method as in PMID 32248641; conditions: cited from earlier work
[5] = tested on: advanced solid tumors with HER2 or HER3 aberrations; assay: Antitumor activity, objective tumor assessment by RECIST1.1; type: in vivo, human
Source text: Objective tumor assessments were made according to the revised response evaluation criteria in solid tumors [RECIST1.1] [8] from evaluation of magnetic resonance imaging (MRI)/computed tomography (CT) scans made at screening (baseline) and after every 2 cycles during the first 6 months of treatment with TAS0728, and after every 3 cycles of treatment thereafter.

[6] = Dose-limiting toxicities, 3 + 3 dose escalation, first cycle; type: in vivo, human; conditions: for Any DLTs / DLT: Grade ≥ 3 diarrhea only if lasting >48 h and unresponsive to intensive antidiarrheal medication: DLT-evaluable population; for Patients with DLT AEs: all treated population
Experimental: Based on preclinical toxicological studies and PK analysis, the starting dose of TAS0728 was 50 mg BID. Dose escalation followed a 3 + 3 dose-escalation scheme and planned to proceed using the following dose levels BID: 50 mg, 100 mg, 200 mg, 400 mg, 600 mg and 800 mg. TAS0728 was administered during a 21-day cycle.
If a DLT was identified at a particular dose level, de-escalation was made to an intermediate de-escalation dose level. […] The MTD was to be the dose level at which 0 of 6 or 1 of 6 patients experienced a DLT, with at least 2 patients experiencing DLTs at the next higher dose level. For the determination of the MTD, DLTs that occurred during the first cycle (i.e., first 21 days) of TAS0728 treatment were considered. Patients who experienced AEs were allowed two dose reductions during the study. TAS0728 treatment could be continued until disease progression, unacceptable toxicity, withdrawal of consent, or at the discretion of the investigator.

[7] = tested on: HER2 overexpressed cancer cells; set-up: method as in PMID 30787176; conditions: cited from earlier work
[8] = human, in vivo
Experimental: A DLT was defined as a study treatment-related adverse event (TRAE), according to the Common Terminology Criteria for Adverse Events (CTCAE, Version 5.0), with qualifying criteria for certain DLTs (e.g., Grade ≥ 3 diarrhea, was included as a DLT only if lasting >48 h and unresponsive to intensive antidiarrheal medication).
Patients were closely monitored for these potential toxicities during the current study. Safety assessments included recording of AEs and serious AEs (SAEs) from the time of signing the study informed consent form to 30 days after the last dose of study medication. Safety parameters including laboratory evaluations (hematology, coagulation, chemistry, and urinalysis), vital sign measurements and body weight, electrocardiogram (ECG) recordings, ECOG performance status, echocardiogram or multi-gated acquisition (MUGA), and physical examination were assessed at screening, during the study and at 30 days following the last dose. The use of concomitant medications was permitted and details for such medications were recorded.

[9] = planned dose 50 mg, cycle 1, day 1, mean, n 3
[10] = planned dose 50 mg, cycle 1, day 1, n 3
[11] = planned dose 100 mg, cycle 1, day 1, mean, n 3
[12] = planned dose 100 mg, cycle 1, day 1, n 3
[13] = planned dose 100 mg, cycle 2, day 1, mean, n 2
[14] = planned dose 100 mg, cycle 2, day 1, mean, n 3
[15] = planned dose 100 mg, cycle 2, day 1, n 3
[16] = planned dose 150 mg, cycle 1, day 1, mean, n 5
[17] = planned dose 150 mg, cycle 1, day 1, mean, n 6
[18] = planned dose 150 mg, cycle 1, day 1, n 6
[19] = planned dose 150 mg, cycle 2, day 1, mean, n 2
[20] = planned dose 150 mg, cycle 2, day 1, n 2
[21] = planned dose 200 mg, cycle 1, day 1, mean, n 6
[22] = planned dose 200 mg, cycle 1, day 1, mean, n 7
[23] = planned dose 200 mg, cycle 1, day 1, n 7
[24] = planned dose 200 mg, cycle 2, day 1, mean, n 2
[25] = planned dose 200 mg, cycle 2, day 1, n 2

Structure (SMILES): C=CC(=O)N1CCC[C@@H](n2nc(C(=O)Nc3ccc(CC(=O)N(C)C)c(C)c3C)c3c(N)ncnc32)C1 [TAS0728]
- Specificity for HER2 over wild-type EGFR [1]: high specificity for HER2 over wild-type EGFR
- Inhibitory effect against HER2 and HER3 versus EGFR ([1]; nonclinical studies): much greater against HER2 and HER3 than against EGFR
- Diarrhea during treatment [2]: did not induce diarrhea
- Accumulation of TAS0728 exposure ([3]; BID multiple-dose administration): No significant accumulation
- t1/2 ([3]; cycle 1, day 1, all dose levels): approximately 2.0 h
- AUC0–12 [3, 9]: 2437 ng·h/mL
- AUCinf [3, 9]: 2470 ng·h/mL
- AUClast [3, 9]: 2415 ng·h/mL
- Cmax [3, 9]: 1162 ng/mL
- t1/2 [3, 9]: 1.96 h
- Tmax maximum [3, 10]: 1.58 h
- Tmax median [3, 10]: 0.50 h
- Tmax minimum [3, 10]: 0.50 h
- AUC0–12 [3, 11]: 5669 ng·h/mL
- AUCinf [3, 11]: 5765 ng·h/mL
- AUClast [3, 11]: 5626 ng·h/mL
- Cmax [3, 11]: 2039 ng/mL
- t1/2 [3, 11]: 1.90 h
- Tmax maximum [3, 12]: 3.05 h
- Tmax median [3, 12]: 0.58 h
- Tmax minimum [3, 12]: 0.53 h
- AUC0–12 [3, 13]: 5475 ng·h/mL
- R(AUC0–12), observed accumulation ratio of AUC0–12 [3, 13]: 0.87
- t1/2 [3, 13]: 2.17 h
- AUClast [3, 14]: 4276 ng·h/mL
- Cmax [3, 14]: 1389 ng/mL
- R (Cmax), observed accumulation ratio of Cmax [3, 14]: 0.56
- Tmax maximum [3, 15]: 6.20 h
- Tmax median [3, 15]: 3.03 h
- Tmax minimum [3, 15]: 0.92 h
- AUC0–12 [3, 16]: 12,946 hr*ng/mL
- AUCinf [3, 16]: 13,158 hr*ng/mL
- t1/2 [3, 16]: 1.91 h
- AUClast [3, 17]: 19,523 hr*ng/mL
- Cmax [3, 17]: 5402 ng/mL
- Tmax maximum [3, 18]: 1.05 h
- Tmax median [3, 18]: 0.59 h
- Tmax minimum [3, 18]: 0.50 h
- AUC0–12 [3, 19]: 14,782 hr*ng/mL
- AUClast [3, 19]: 14,782 hr*ng/mL
- Cmax [3, 19]: 3460 ng/mL
- R (Cmax), observed accumulation ratio of Cmax [3, 19]: 0.91
- R(AUC0–12), observed accumulation ratio of AUC0–12 [3, 19]: 1.61
- t1/2 [3, 19]: 3.11 h
- Tmax maximum [3, 20]: 1.58 h
- Tmax median [3, 20]: 1.30 h
- Tmax minimum [3, 20]: 1.02 h
- AUC0–12 [3, 21]: 14,653 hr*ng/mL
- AUCinf [3, 21]: 15,046 hr*ng/mL
- t1/2 [3, 21]: 2.05 h
- AUClast [3, 22]: 15,108 hr*ng/mL
- Cmax [3, 22]: 5091 ng/mL
- Tmax maximum [3, 23]: 3.92 h
- Tmax median [3, 23]: 1.00 h
- Tmax minimum [3, 23]: 0.45 h
- AUC0–12 [3, 24]: 11,459 hr*ng/mL
- AUClast [3, 24]: 11,248 hr*ng/mL
- Cmax [3, 24]: 2565 ng/mL
- R (Cmax), observed accumulation ratio of Cmax [3, 24]: 0.96
- R(AUC0–12), observed accumulation ratio of AUC0–12 [3, 24]: 1.18
- t1/2 [3, 24]: 3.13 h
- Tmax maximum [3, 25]: 3.25 h
- Tmax median [3, 25]: 1.88 h
- Tmax minimum [3, 25]: 0.52 h
- Anti-tumor effect [4]: significant anti-tumor effects
- Time on treatment before disease progression, patient with PR (BTC, HER2 amplification) ([5]; 200 mg BID, no dose adjustment): 136 days
- Patients with disease control (best overall tumor response of PR or SD) ([5]; all dose levels): 10
- Objective responses (PR) ([5]; of 19 treated patients, NSCLC with HER2 mutation at 50 mg BID, BTC with HER2 amplification at 200 mg BID): two
- Any DLTs ([6]; 50 mg BID (N = 3)): 0 n, (%)
- DLT: Grade ≥ 3 diarrhea only if lasting >48 h and unresponsive to intensive antidiarrheal medication ([6]; 50 mg BID (N = 3)): 0 n, (%)
- Patients with DLT AEs ([6]; 50 mg BID (N = 3)): 0 n, (%)
- Any DLTs ([6]; 100 mg BID (N = 3)): 0 n, (%)
- DLT: Grade ≥ 3 diarrhea only if lasting >48 h and unresponsive to intensive antidiarrheal medication ([6]; 100 mg BID (N = 3)): 0 n, (%)
- Patients with DLT AEs ([6]; 100 mg BID (N = 3)): 0 n, (%)
- Any DLTs ([6]; 150 mg BID (N = 3)): 1 (33.3) n, (%)
- DLT: Grade ≥ 3 diarrhea only if lasting >48 h and unresponsive to intensive antidiarrheal medication ([6]; 150 mg BID (N = 3)): 1 (33.3) n, (%)
- Patients with DLT AEs ([6]; 150 mg BID (N = 6)): 1 (16.7) n, (%)
- DLTs observed (Grade 3 diarrhea lasting >48 h, not responsive to antidiarrheal treatment) ([6]; 200 mg BID): two
- Any DLTs ([6]; 200 mg BID (N = 6)): 2 (33.3) n, (%)
- DLT: Grade ≥ 3 diarrhea only if lasting >48 h and unresponsive to intensive antidiarrheal medication ([6]; 200 mg BID (N = 6)): 2 (33.3) n, (%)
- Patients with DLT AEs ([6]; 200 mg BID (N = 7)): 2 (28.6) n, (%)
- Patients with DLT AEs ([6]; Overall (N = 19)): 3 (15.8) n, (%)
- Any DLTs ([6]; Total (N = 15)): 3 (20.0) n, (%)
- DLT: Grade ≥ 3 diarrhea only if lasting >48 h and unresponsive to intensive antidiarrheal medication ([6]; Total (N = 15)): 3 (20.0) n, (%)
- Inhibitory activity for overexpressed/amplified HER2 and mutated HER2 in cancer cells [7]: potent inhibitory activity
- Antiproliferative activity against HER2 overexpressed cancer cells ([7]; in vitro and in vivo): antiproliferative activity
- Patients with urinary tract infection [8]: 28.6%
